pIC50: −log10 of the molar value.
Key:
[1] = system: T. brucei brucei parasites
in vitro = details: human, Jurkat cells
rhodesain = rhodesain (Trypanosoma brucei rhodesiense, UniProt Q95PM0); test: biochemical; details: read-out: rhodesain inhibition kinetics kinact/Ki
Jurkat cells = details: at 10 uM
[2] = system: T. brucei brucei parasites; test: microbe, parasite or virus in culture; details: Trypanosoma brucei, read-out: parasite growth inhibition GI50 T.b.b parasites
cruzain = cruzain (Trypanosoma cruzi, UniProt P25779); details: initial survey of non-peptidic P2/P3 moieties
cruzain, sequence (P25779 123-467): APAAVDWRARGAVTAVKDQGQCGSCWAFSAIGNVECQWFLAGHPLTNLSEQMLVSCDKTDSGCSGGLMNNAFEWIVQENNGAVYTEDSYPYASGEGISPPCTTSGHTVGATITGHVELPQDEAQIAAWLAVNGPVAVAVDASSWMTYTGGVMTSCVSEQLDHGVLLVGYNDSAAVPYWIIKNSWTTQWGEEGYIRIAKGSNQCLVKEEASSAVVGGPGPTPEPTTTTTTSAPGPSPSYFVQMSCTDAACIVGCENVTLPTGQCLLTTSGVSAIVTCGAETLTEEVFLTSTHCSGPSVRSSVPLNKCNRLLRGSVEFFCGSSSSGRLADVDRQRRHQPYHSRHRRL

rhodesain, sequence (Q95PM0 1-450): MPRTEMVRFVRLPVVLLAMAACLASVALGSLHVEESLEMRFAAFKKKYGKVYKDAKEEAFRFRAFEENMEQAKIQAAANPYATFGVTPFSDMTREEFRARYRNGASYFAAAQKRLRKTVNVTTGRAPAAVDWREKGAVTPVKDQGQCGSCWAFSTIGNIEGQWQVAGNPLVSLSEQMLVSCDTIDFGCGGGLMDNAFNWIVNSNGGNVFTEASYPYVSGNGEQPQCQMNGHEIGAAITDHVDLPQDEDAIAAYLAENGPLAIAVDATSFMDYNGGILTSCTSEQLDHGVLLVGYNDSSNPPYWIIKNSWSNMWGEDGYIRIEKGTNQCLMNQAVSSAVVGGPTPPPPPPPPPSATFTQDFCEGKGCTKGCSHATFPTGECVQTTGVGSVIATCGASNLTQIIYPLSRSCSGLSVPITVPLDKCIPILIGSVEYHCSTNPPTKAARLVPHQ

O=C(N[C@H](/C=C/S(=O)(=O)c1ccccc1)CCc1ccccc1)c1cc(-c2ccccc2)no1 [4a]
effect against cultured parasites (in words) [1]: ineffective against cultured parasites
pIC50 (in vitro): < 4.00
kinact/KI (rhodesain): 3610 M⁻¹ s⁻¹

CN1CCN(C(=O)N[C@@H](Cc2ccccc2)C(=O)N[C@H](/C=C/S(=O)(=O)c2ccccc2)CCc2ccccc2)CC1 [K-777 (1)]
cytotoxicity Jurkat cells, percent at single concentration (Jurkat cells): 3% at 10 uM

O=C(N[C@H](/C=C/S(=O)(=O)c1ccccc1)CCc1ccccc1)[C@@H]1CCCC[C@H]1C(=O)c1ccc(Cl)cc1 [7a]
pIC50 (in vitro): < 4.00
kinact/KI (rhodesain): 9750 M⁻¹ s⁻¹
GI50 [2]: 12 µM

O=C(N[C@H](/C=C/S(=O)(=O)c1ccccc1)CCc1ccccc1)c1cc(-c2ccccn2)no1 [4d]
effect against cultured parasites (in words) [1]: antiparasitic effects at low micromolar concentration
pIC50 (in vitro): < 4.00
kinact/KI (rhodesain): 7720 M⁻¹ s⁻¹

Cc1nc(-c2cccnc2)sc1C(=O)N[C@H](/C=C/S(=O)(=O)c1ccccc1)CCc1ccccc1 [3b]
effect against cultured parasites (in words) [1]: antiparasitic effects at low micromolar concentration

O=C(N[C@H](/C=C/S(=O)(=O)c1ccccc1)CCc1ccccc1)c1cc(-c2cccnc2)no1 [4c]
pIC50 (in vitro): < 4.00

O=C(N[C@H](/C=C/S(=O)(=O)c1ccccc1)CCc1ccccc1)[C@H]1CCCC[C@@H]1C(=O)c1ccc(Cl)cc1 [7b]
kinact/KI (rhodesain): 2160 M⁻¹ s⁻¹

Cc1onc(-c2ccc(F)cc2)c1C(=O)N[C@H](/C=C/S(=O)(=O)c1ccccc1)CCc1ccccc1 [compound 5]
enzyme activity (in words) (cruzain): ineffective

Cc1nc(-c2cnccn2)sc1C(=O)N[C@H](/C=C/S(=O)(=O)c1ccccc1)CCc1ccccc1 [3c]
effect against cultured parasites (in words) [1]: antiparasitic effects at low micromolar concentration
pIC50 (in vitro): < 4.00
kinact/KI (rhodesain): 25200 M⁻¹ s⁻¹

O=C(N[C@H](/C=C/S(=O)(=O)c1ccccc1)CCc1ccccc1)c1cc(-c2ccncc2)no1 [4b]
effect against cultured parasites (in words) [1]: antiparasitic effects at low micromolar concentration
pIC50 (in vitro): < 4.00
kinact/KI (rhodesain): 8590 M⁻¹ s⁻¹

Cc1nc(-c2ccccc2)sc1C(=O)N[C@H](/C=C/S(=O)(=O)c1ccccc1)CCc1ccccc1 [3a]
effect against cultured parasites (in words) [1]: ineffective against cultured parasites
pIC50 (in vitro): < 4.00
kinact/KI (rhodesain): 84000 M⁻¹ s⁻¹

CC(C)(C)c1cc(C(=O)N[C@H](/C=C/S(=O)(=O)c2ccccc2)CCc2ccccc2)n(Cc2ccccc2)n1 [compound 6]
enzyme activity (in words) (cruzain): ineffective

Reference: article PMC3760505 (Bioorganic & medicinal chemistry letters, 2009)
